target: T1, human H1 (Homo sapiens, UniProt P35367); assay: In vitro histamine H1 receptor cell-based aequorin bioluminescence antagonist assay; conditions: CHO-K1 cells expressing human H1 and aequorin; histamine at EC80; read-out: H1 Antagonist EC50
T1 construct: host or cells: CHO-K1, also expressing mitochondrion-targeted aequorin
In short: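 CHO-K1 cells stably expressing human H1 or H4 plus mitochondrial aequorin (H4 also with Gα16), loaded with 5 μM coelenterazine-h for 4 h at ~21 °C. Compounds preincubated 15 min at room temperature, then histamine at EC80 added.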

T1 sequence (P35367 whole entry): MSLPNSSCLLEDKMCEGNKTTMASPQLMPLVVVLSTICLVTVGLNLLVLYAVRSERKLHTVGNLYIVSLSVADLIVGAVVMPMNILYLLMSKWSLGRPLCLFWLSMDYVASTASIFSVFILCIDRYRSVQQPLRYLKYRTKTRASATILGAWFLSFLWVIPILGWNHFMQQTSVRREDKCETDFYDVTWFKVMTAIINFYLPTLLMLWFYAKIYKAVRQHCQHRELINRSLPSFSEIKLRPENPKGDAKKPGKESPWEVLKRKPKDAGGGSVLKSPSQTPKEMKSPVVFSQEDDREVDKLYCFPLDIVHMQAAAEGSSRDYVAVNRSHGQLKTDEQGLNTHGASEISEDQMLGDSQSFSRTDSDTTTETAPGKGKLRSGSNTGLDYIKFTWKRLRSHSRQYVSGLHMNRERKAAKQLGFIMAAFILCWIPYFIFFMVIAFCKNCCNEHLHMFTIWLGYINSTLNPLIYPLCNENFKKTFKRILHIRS

| SMILES | EC50 |
| --- | --- |
| c1ccc(CC2CCN(c3ncnc4sccc34)CC2)cc1 [Example 302, 4-(4-benzylpiperidin-1-yl)thieno[2,3-d]pyrimidine] | > 10 µM |
| Cc1csc2ncnc(NC(C)CC(C)C)c12 (centres unmarked) [Example 79, 5-methyl-N-(4-methylpentan-2-yl)thieno[2,3-d]pyrimidin-4-amine] | > 10 µM |
| Cc1csc2ncnc(NC3CCc4ccccc43)c12 (centres unmarked) [Example 111, N-(2,3-dihydro-1H-inden-1-yl)-5-methylthieno[2,3-d]pyrimidin-4-amine] | > 10 µM |
| Fc1ccccc1CCNc1ncnc2sc3c(c12)CCCC3 [Example 42, N-[2-(2-fluorophenyl)ethyl]-8-thia-4,6-diazatricyclo[7.4.0.0^{2,7}]trideca-1(9),2(7),3,5-tetraen-3-amine] | > 10 µM |
| CCCCN(C)c1ncnc2scc(C)c12 [Example 187, N-butyl-N,5-dimethylthieno[2,3-d]pyrimidin-4-amine] | > 10 µM |
| Cc1csc2ncnc(NC(C)C(C)C)c12 (centres unmarked) [Example 68, 5-methyl-N-(3-methylbutan-2-yl)thieno[2,3-d]pyrimidin-4-amine] | > 10 µM |
| Cc1csc2ncnc(NCc3cccs3)c12 [Example 87, 5-methyl-N-(thiophen-2-ylmethyl)thieno[2,3-d]pyrimidin-4-amine] | > 10 µM |
| Cc1csc2ncnc(N3CCC(N(C)C(=O)OC(C)(C)C)C3)c12 (centres unmarked) [Example 270, tert-butyl N-methyl-N-(1-{5-methylthieno[2,3-d]pyrimidin-4-yl}pyrrolidin-3-yl)carbamate] | > 10 µM |
| Cc1csc2ncnc(N3CCCCC3CCO)c12 (centres unmarked) [Example 215, 2-(1-{5-methylthieno[2,3-d]pyrimidin-4-yl}piperidin-2-yl)ethan-1-ol] | > 10 µM |
| Cc1csc2ncnc(C(=O)CCc3ccc(Cl)cc3)c12 [Example 25, 3-(4-chlorophenyl)-1-(5-methylthieno[2,3-d]pyrimidin-4-yl)propan-1-one] | > 10 µM |
| Cc1csc2ncnc(NC3CCCCCC3)c12 [Example 90, N-cycloheptyl-5-methylthieno[2,3-d]pyrimidin-4-amine] | > 10 µM |
| Cc1csc2ncnc(NCCc3ccccc3F)c12 [Example 127, N-[2-(2-fluorophenyl)ethyl]-5-methylthieno[2,3-d]pyrimidin-4-amine] | > 10 µM |
| CCCC(Nc1ncnc2sccc12)c1ccccc1 (centres unmarked) [Example 307, N-(1-phenylbutyl)thieno[2,3-d]pyrimidin-4-amine] | > 10 µM |
| Cc1csc2ncnc(NCc3ccc(C(C)C)cc3)c12 [Example 140, 5-methyl-N-{[4-(propan-2-yl)phenyl]methyl}thieno[2,3-d]pyrimidin-4-amine] | > 10 µM |
| Cc1csc2ncnc(NCc3cccc(F)c3)c12 [Example 102, N-[(3-fluorophenyl)methyl]-5-methylthieno[2,3-d]pyrimidin-4-amine] | > 10 µM |
| c1nc(NCc2ccc(CN3CCOCC3)cc2)c2c3c(sc2n1)CCC3 [Example 309] | > 10 µM |
| Cc1csc2ncnc(NCCCN(C)c3ccccc3)c12 [Example 157, N-methyl-N-[3-({5-methylthieno[2,3-d]pyrimidin-4-yl}amino)propyl]aniline] | > 10 µM |

| SMILES | EC50 |
| --- | --- |
| Cc1csc2ncnc(NCc3ccccc3)c12 [Example 83, N-benzyl-5-methylthieno[2,3-d]pyrimidin-4-amine] | > 10 µM |
| COC(=O)C1CCN(c2ncnc3scc(C)c23)CC1 [Example 224, methyl 1-{5-methylthieno[2,3-d]pyrimidin-4-yl}piperidine-4-carboxylate] | > 10 µM |
| Cc1csc2ncnc(NCc3ccc4c(c3)OCO4)c12 [Example 141, N-(2H-1,3-benzodioxol-5-ylmethyl)-5-methylthieno[2,3-d]pyrimidin-4-amine] | > 10 µM |
| Cc1csc2ncnc(N3CCN(CCN4CCOCC4)CC3)c12 [Example 269, 4-[2-(4-{5-methylthieno[2,3-d]pyrimidin-4-yl}piperazin-1-yl)ethyl]morpholine] | > 10 µM |
| Cc1csc2ncnc(NCc3ccc(Cl)cc3Cl)c12 [Example 167, N-[(2,4-dichlorophenyl)methyl]-5-methylthieno[2,3-d]pyrimidin-4-amine] | > 10 µM |
| Cc1csc2ncnc(NC3CCC(C)CC3)c12 (centres unmarked) [Example 21, (4-Methylcyclohexyl)(5-methylthiopheno[3,2-e]pyrimidin-4-yl)amine] | > 10 µM |
| Cc1csc2ncnc(NC(=O)Cc3ccc(Cl)cc3)c12 [Example 31, 2-(4-chlorophenyl)-N-(5-methylthieno[2,3-d]pyrimidin-4-yl)acetamide] | > 10 µM |
| Cc1csc2ncnc(NCCNC(=O)OC(C)(C)C)c12 [Example 154, tert-butyl N-[2-({5-methylthieno[2,3-d]pyrimidin-4-yl}amino)ethyl]carbamate] | > 10 µM |
| CCN(Cc1ccccc1)c1ncnc2scc(C)c12 [Example 217, N-benzyl-N-ethyl-5-methylthieno[2,3-d]pyrimidin-4-amine] | > 10 µM |
| Cc1csc2ncnc(NCCc3cccc(F)c3)c12 [Example 18] | > 10 µM |
| Cc1csc2ncnc(NCc3ccc(F)c(F)c3)c12 [Example 134, N-[(3,4-difluorophenyl)methyl]-5-methylthieno[2,3-d]pyrimidin-4-amine] | > 10 µM |
| c1ccc(CCNc2ncnc3sccc23)cc1 [Example 290, N-phenethylthieno[2,3-d]pyrimidin-4-amine] | > 10 µM |
| Cc1csc2ncnc(NC(CO)C(C)C)c12 (centres unmarked) [Example 82, 3-methyl-2-({5-methylthieno[2,3-d]pyrimidin-4-yl}amino)butan-1-ol] | > 10 µM |
| Cc1csc2ncnc(N3CCN(CC4CCCCC4)CC3)c12 [Example 247, 1-(cyclohexylmethyl)-4-{5-methylthieno[2,3-d]pyrimidin-4-yl}piperazine] | > 10 µM |
| Cc1csc2ncnc(NCCC(c3ccccc3)c3ccccc3)c12 [Example 176, N-(3,3-diphenylpropyl)-5-methylthieno[2,3-d]pyrimidin-4-amine] | > 10 µM |
| CCOC(=O)N1CCC(Nc2ncnc3scc(C)c23)CC1 [Example 162, ethyl 4-({5-methylthieno[2,3-d]pyrimidin-4-yl}amino)piperidine-1-carboxylate] | > 10 µM |
| CCC(C)CNc1ncnc2scc(C)c12 (centres unmarked) [Example 67, 5-methyl-N-(2-methylbutyl)thieno[2,3-d]pyrimidin-4-amine] | > 10 µM |

target: T2, human H4 (Homo sapiens, UniProt Q9H3N8); assay: In vitro histamine H4 receptor cell-based aequorin bioluminescence antagonist assay; conditions: CHO-K1 cells expressing human H4, aequorin and Gα16; histamine at EC80
T2 construct: host or cells: CHO-K1, also expressing mitochondrion-targeted aequorin and human Gα16
T2 sequence (Q9H3N8 whole entry): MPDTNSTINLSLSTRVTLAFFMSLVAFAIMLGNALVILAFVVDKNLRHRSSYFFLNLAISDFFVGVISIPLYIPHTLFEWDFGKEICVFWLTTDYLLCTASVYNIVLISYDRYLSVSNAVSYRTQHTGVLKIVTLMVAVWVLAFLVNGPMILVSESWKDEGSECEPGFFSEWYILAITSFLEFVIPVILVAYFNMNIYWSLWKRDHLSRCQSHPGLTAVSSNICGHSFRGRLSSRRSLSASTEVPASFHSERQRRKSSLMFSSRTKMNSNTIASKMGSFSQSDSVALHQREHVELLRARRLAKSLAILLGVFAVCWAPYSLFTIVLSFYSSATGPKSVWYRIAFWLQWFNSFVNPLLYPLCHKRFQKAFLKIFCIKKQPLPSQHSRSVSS
Description: In vitro Histamine Receptor Cell-Based Assays
The cell-based assays utilize an aequorin dependent bioluminescence signal. Doubly-transfected, stable CHO—K1 cell lines expressing human H1 or H4, mitochondrion-targeted aequorin, and (H4 only) human G protein Gα16 are obtained from Perkin-Elmer. Cells are maintained in F12 (Ham's) growth medium, containing 10% (vol./vol.) fetal bovine serum, penicillin (100 IU/mL), streptomycin (0.1 mg/mL), zeocin (0.25 mg/mL) and geneticin (0.40 mg/mL). Cell media components are from Invitrogen, Inc. One day prior to assay, the growth medium is replaced with the same, excluding zeocin and geneticin.
For assay preparation, growth medium is aspirated, and cells are rinsed with calcium-free, magnesium-free phosphate-buffered saline, followed by two to three minute incubation in Versene (Invitrogen, Inc.) at 37° C. Assay medium (DMEM:F12 [50:50], phenol-red free, containing 1 mg/mL protease-free bovine serum albumin) is added to collect the released cells, which are then centrifuged. The cell pellet is re-suspended in assay medium, centrifuged once more, and re-suspended in assay medium to a final density of 5×10^6 cells/mL. Coelenterazine-h dye (500 μM in ethanol) is added to a final concentration of 5 μM, and mixed immediately. The conical tube containing the cells is then wrapped with foil to protect the light-sensitive dye. The cells are incubated for four hours further at room temperature (approximately 21° C.) with end-over-end rotation to keep them in suspension.
Just before assay, the dye-loaded cells are diluted to 0.75×10^6 cells/mL (H1 receptor) or 1.5×10^6 cells/mL (H4 receptor) with additional assay medium. Cells are dispensed to 1536 well micro-titer plates at 3 μL/well. To assay receptor antagonism, 60 nl of 100× concentration test compounds in 100% dimethyl sulfoxide (DMSO) are dispensed to the wells, one compound per well, by passive pin transfer, and the plates are incubated for 15 minutes at room temperature. […] The pipette dispenses 3 μL/well of agonist (histamine, at twice the final concentration, where final concentration is a previously determined EC80) in assay medium, with concurrent bioluminescence detection. Agonist activity of test compounds is excluded by separate assays that measure response to test compounds immediately, without added histamine agonist.
CCD image capture on the Lumilux includes a 5 second baseline read prior to agonist addition, and generally a 40 second read per plate after agonist addition. A decrease in bioluminescence signal (measured either as area-under-the-curve, or maximum signal amplitude minus minimum signal amplitude) correlates with receptor antagonism in a dose dependent manner. The negative control is DMSO lacking any test compound. For antagonist assays, the positive controls are diphenhydramine (2-Diphenylmethoxy-N,N-dimethylethylamine, 10 μM final concentration, H1 receptor) or JNJ7777120 (1-[(5-Chloro-1H-indol-2-yl)carbonyl]-4-methyl-piperazine, 10 μM final concentration, H4 receptor). Efficacy is measured as a percentage of positive control activity.

| SMILES | EC50 |
| --- | --- |
| c1ccc(CN2CCN(c3ncnc4sc5c(c34)CCCC5)CC2)cc1 [Example 12, 4-(4-benzylpiperazin-1-yl)-5,6-tetrahydrobenzo[b]thiophenethieno[2,3-d]pyrimidine] | > 10 µM |
| Cc1ccc(C)c(N2CCN(c3ncnc4scc(C)c34)CC2)c1 [Example 259, 1-(2,5-dimethylphenyl)-4-{5-methylthieno[2,3-d]pyrimidin-4-yl}piperazine] | > 10 µM |
| Cc1csc2ncnc(N(C)CCc3ccccn3)c12 [Example 220, N,5-dimethyl-N-[2-(pyridin-2-yl)ethyl]thieno[2,3-d]pyrimidin-4-amine] | > 10 µM |
| CN1CCC(N(C)c2ncnc3scc(-c4ccc(Br)cc4)c23)CC1 [Example 13, 5-(4-bromophenyl)-N-methyl-N-(1-methylpiperidin-4-yl)thieno[2,3-d]pyrimidin-4-amine] | > 10 µM |
| Cc1csc2ncnc(N3CCN(c4ccc(C#N)cn4)CC3)c12 [Example 253, 6-(4-{5-methylthieno[2,3-d]pyrimidin-4-yl}piperazin-1-yl)pyridine-3-carbonitrile] | > 10 µM |
| Cc1csc2ncnc(N3CCN(c4ccc(Cl)cc4)CC3)c12 [Example 266, 1-(4-chlorophenyl)-4-{5-methylthieno[2,3-d]pyrimidin-4-yl}piperazine] | > 10 µM |
| Cc1csc2ncnc(N3CCC(N(C)C)C3)c12 (centres unmarked) [Example 202, N,N-dimethyl-1-{5-methylthieno[2,3-d]pyrimidin-4-yl}pyrrolidin-3-amine] | > 10 µM |
